“Also recorded” adds a separate entry of the source. Where two headings read alike, the source gives them in different places.
Experiments:
[1] = Human microsomal stability (Eh); assay type: in vitro ADME; settings: hepatic extraction ratio; 0.5 mg/mL microsomal protein, 1 μM, NADPH; liver blood flow 20.7 mL/min/kg
Description: The stock solutions of test article and positive control were prepared at a concentration of 10 mM using DMSO as diluents. All stock solutions were then diluted to working concentrations at 0.25 mM with 70% acetonitrile. The cofactor used in this study was NADPH regenerating system, that was composed of 6.5 mM NADP, 16.5 mM G-6-P, 3 U/mL G-6-P D. The quench reagent was consisted of acetonitrile containing tolbutamide and propanolol (serve as internal standard). Incubation mixtures containing 0.5 mg/mL liver microsomal protein and […] test article/positive control in 100 mM potassium phosphate buffer.
The 0-minute samples were prepared by addition of an 80 μL aliquot of each incubation mixture to 300 μL quench reagent to precipitate proteins. The samples were vortexed, and then a 20 μL aliquot of the NADPH regenerating system was added in. The reaction was initiated by addition of 80 μL of the NADPH regenerating system to 320 μL of each incubation mixture. The final incubation conditions achieved in 400 μL are: 0.5 mg/mL microsomal protein, 1 μM test article/positive control, 1.3 mM NADP, 3.3 mM glucose 6 phosphate, 0.6 U/mL glucose 6 phosphate dehydrogenase. The mixtures were incubated in a 37° C. water bath with gentle shaking. A 100 μL aliquot of each mixture was removed at 10, 30, 90 minutes to a clean 96-well plate which contains 300 μL quench reagent to precipitate proteins, and centrifuged (4000×g, 10 min). 80 μL of supernatant are taken into 96-well assay plates pre-added with 160 μL ultrapure water, and then analyzed by LC-MS/MS. Hepatic extraction ratio (Eh) values were calculated from measured in vitro clearance assuming a human liver blood flow of 20.7 mL/min/kg. Eh values of <0.3 are indicative of compounds with favorable metabolic stability.

TNFα = TNFα levels of LPS and nigericin stimulated cells (counter-screen); assay type: cell-based, human
Description: (§1) For ELISA assays cells were seeded into 96-well plates. Post study, supernatants were removed and the levels of mature IL-1β, IL-18 and TNFα (Quantikine ELISA, R&D systems) were measured in cell conditioned media by ELISA according to manufacturer's instructions.
TNFα levels of LPS and nigericin stimulated cells is measured by HTRF assay (Cisbio, Bedford, Mass.). […] Measuring TNFalpha production also serves as a technical counter-screen to eliminate compounds that interfere with the HTRF reagents. Thus compounds that inhibit both IL-1β and TNFα levels are triaged for either being non-selective for inflammasome or interfering with the HTRF readout.

NLRP3 inflammasome [2] = molecular target: T1, NLRP3 inflammasome (Homo sapiens, UniProt Q96P20); test: NLRP3 inflammasome activation assay in Kupffer cells (LPS priming, nigericin), IL-1β/IL-18 by ELISA; assay type: cell-based; settings: KCs; LPS, nigericin; read-out: KC IL-1β IC50
Text: (§2) Some of the following assays were used to determine the inhibitory activity of the compounds on the NLRP3 inflammasome using a common inflammasome activation stimuli-nigericin.
Human Kupffer cells (KCs), specialized liver macrophages residing in […], were obtained by gradient isolation from liver specimens harvested post-mortem by Samsara Sciences. Cells were obtained through an IRB approved donor program by Samsara Sciences and all donors tested negative for bacterial and viral infections.
(§3) Cells were then stimulated with 10 uM Nigericin (Sigma Aldrich; InvivoGen) for 1.5 h. Plates were centrifuged at 1,500 rpm for 3 minutes to pellet cells and supernatant was transferred into new plates for subsequent experiments.
as §1

[3] = tested on: LPS and nigericin stimulated cells; test: cells; assay type: cell-based; settings: Homo sapiens, read-out: CTG protective IC50
Description: Viability of compound treated cells is measured using CellTiter-Glo® assay (Promega, Madison, Wis.) that measures the ATP content of cells which is proportional to the number of live cells within a well. This is a counter-screen to establish that the reduction of IL-1β levels in LPS and nigericin stimulated and compound treated cells is not due to cytotoxicity, but rather through the inhibition of the inflammasome pathway. Compounds inhibiting NRLP3 inflammasome activation ultimately increase the viability of LPS and nigericin stimulated cells by blocking NLRP3 mediated pyroptosis that would otherwise lead to cell lysis.

NLRP3 inflammasome [4] = molecular target: T1, NLRP3 inflammasome; test: NLRP3 inflammasome activation assay in PBMCs (LPS priming, nigericin), IL-1β by ELISA; assay type: cell-based; design: Human peripheral blood mononuclear cells (PBMCs); host or cells: primary human PBMCs from healthy donors; settings: for IC50: LPS, nigericin, read-out: PBMC IL-1β IC50
Description: as §2
Human peripheral blood mononuclear cells (PBMCs), consisting of lymphocytes (T, B and NK cells), monocytes and dendritic cells, were freshly isolated from human peripheral blood from healthy donors. Cells were obtained through an IRB approved donor program by iXCells Biotechnologies where all the donors were tested for bacterial and viral infections. Cells were purified from peripheral blood using ficoll gradient centrifugation.
as §3, §1

IL-1β = test: LPS/ATP challenge model in C57BL/6 mice, IL-1β in peritoneal lavage; assay type: in vivo; settings: 3.5 hours post dose
Description: The purpose of this study was to determine the effects of Compounds 1 and 2 treatment on cytokine production after LPS/ATP injection in female C57BL/6 mice.
On Day −1 mice were weighed and assigned to groups per Table 2 (see below) in a balanced manner to achieve similar average weight across the groups at the start of the study.
All mice received a single dose of treatment or vehicle, at hour minus 1.
At hour 0, all mice received 1 μg of lipopolysaccharide, ultra pure (LPS, InvivoGen, San Diego, Calif.) in 0.5 ml PBS, intraperitoneally.
At hour 2 (two hours after LPS injection), all mice were injected intraperitoneally with 0.5 ml of 80 mM ATP disodium salt (Sigma, pH adjusted to 7.2 before injection).
At hour 2.5 (30 minutes after ATP injection and 3.5 hours after compound dosing), blood from all mice was collected via retro-orbital bleeding into K2 EDTA tubes and plasma was prepared and stored at […]. Samples were shipped to the customer or vendor of customers choosing within 7 days of completing the study.
Immediately after the collection of blood, each mouse was euthanized, the peritoneal cavity was lavaged with 3 ml of ice-cold PBS containing 25 U/ml heparin sodium salt, cocktail of protease inhibitors (Complete™ ULTRA Tablets, Sigma, Roche), and 10% FBS. Approximately 1 ml of the lavage was collected, spun down to remove cells and the supernatant stored at −80° C.
Compound powders were stored at 4° C. All compounds were prepared fresh. Compounds were weighed out and first ground with a mortar and pestle, then ground with a small amount of vehicle. The mortar was then repeatedly rinsed with vehicle to remove all material and achieve the correct concentration. The final solution was vortexed to create a homogeneous mixture
Mouse IL-1β and TNFα concentrations in peritoneal lavage samples were determined using Becton Dickinson (Franklin Lakes, N.J.) CBA analysis kit, according to manufacturer's protocol. A single analysis was performed on each sample.
Concentrations of cytokines were compared using Student t-test.

pro-caspase-1 = test: Inhibition of Caspase1 activation in bone marrow derived macrophages (Western Blot); assay type: cell-based, mouse; settings: 10 μM; BMDMs, LPS 100 ng/ml 3 hours, nigericin 10 μM 90 minutes
[5] = LPS and nigericin stimulated cells, CellTiter-Glo

T1 sequence (Q96P20 whole entry): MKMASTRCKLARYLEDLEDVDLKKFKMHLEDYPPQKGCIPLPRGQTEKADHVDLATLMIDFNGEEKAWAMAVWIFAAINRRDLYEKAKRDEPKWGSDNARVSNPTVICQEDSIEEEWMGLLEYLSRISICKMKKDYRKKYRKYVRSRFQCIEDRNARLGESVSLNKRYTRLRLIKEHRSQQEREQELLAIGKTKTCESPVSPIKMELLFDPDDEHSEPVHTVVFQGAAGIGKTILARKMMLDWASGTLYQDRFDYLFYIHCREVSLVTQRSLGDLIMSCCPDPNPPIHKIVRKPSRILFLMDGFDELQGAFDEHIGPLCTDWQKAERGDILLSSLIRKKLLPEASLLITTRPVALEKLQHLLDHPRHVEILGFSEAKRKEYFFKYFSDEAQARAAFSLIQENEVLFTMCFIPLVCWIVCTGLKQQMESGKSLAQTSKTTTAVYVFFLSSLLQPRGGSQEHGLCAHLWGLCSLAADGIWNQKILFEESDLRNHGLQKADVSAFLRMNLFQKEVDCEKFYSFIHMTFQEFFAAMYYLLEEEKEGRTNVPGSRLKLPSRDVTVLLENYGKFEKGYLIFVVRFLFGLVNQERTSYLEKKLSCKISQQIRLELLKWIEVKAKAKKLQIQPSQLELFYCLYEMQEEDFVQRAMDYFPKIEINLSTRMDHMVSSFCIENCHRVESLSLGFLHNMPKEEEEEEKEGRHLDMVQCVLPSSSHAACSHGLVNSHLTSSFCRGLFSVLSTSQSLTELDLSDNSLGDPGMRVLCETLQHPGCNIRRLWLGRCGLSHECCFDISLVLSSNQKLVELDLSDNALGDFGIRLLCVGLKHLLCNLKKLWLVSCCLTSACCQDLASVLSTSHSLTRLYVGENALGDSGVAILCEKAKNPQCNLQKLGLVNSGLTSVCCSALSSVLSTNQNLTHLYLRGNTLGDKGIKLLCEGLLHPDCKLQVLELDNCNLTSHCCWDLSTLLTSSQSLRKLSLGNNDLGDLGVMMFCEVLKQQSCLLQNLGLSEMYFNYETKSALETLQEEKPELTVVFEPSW

| Structure (SMILES) | Human Microsomal Stability (Eh) [1] | TNFα IC50 (PBMC or KC) (TNFα) | IC50 (NLRP3 inflammasome [2]) | IC50 [3, 5] | IC50 (NLRP3 inflammasome [4]) | further results |
| --- | --- | --- | --- | --- | --- | --- |
| CCO[C@H]1COc2c(S(=O)(=O)NC(=O)Nc3c4c(cc5c3CCC5)CCC4)cnn2C1 | 0.4 | No Curve | < 100 nM | < 100 nM | < 100 nM | – |
| CO[C@@H]1COc2c(S(=O)(=O)NC(=O)Nc3c4c(cc5c3CCC5)CCC4)cnn2C1 | 0.2 | No Curve | 100 to 1000 nM | 100 to 1000 nM | 100 to 1000 nM | – |
| CC1CCn2ncc(S(=O)(=O)NC(=O)Nc3c4c(cc5c3CCC5)CCC4)c2O1 (centres unmarked) [drawing 519] | – | No Curve | < 100 nM | – | 100 to 1000 nM | – |
| O=S(=O)(NC(=S)Nc1c2c(cc3c1CCC3)CCC2)c1cnn2c1OCCC2 [Compound 3, N-((1,2,3,5,6,7-hexahydro-s-indacen-4-yl)carbamothioyl)-6,7-dihydro-5H-pyrazolo[5,1-b][1,3]oxazine-3-sulfonamide] | – | – | – | – | – | % Decrease of IL-1β vs. Vehicle (IL-1β; single oral dose 0.25 mg/kg): 53.0%; Mean (IL-1β) (IL-1β; single oral dose 0.25 mg/kg): 781.8 pg/mL; % Decrease of IL-1β vs. Vehicle (IL-1β; single oral dose 1 mg/kg): 96.5%; Mean (IL-1β) (IL-1β; single oral dose 1 mg/kg): 57.7 pg/mL; % Decrease of IL-1β vs. Vehicle (IL-1β; single oral dose 2.5 mg/kg): 99.1%; Mean (IL-1β) (IL-1β; single oral dose 2.5 mg/kg): 14.6 pg/mL; IL-1β production in PBMCs (FIG. 1) (NLRP3 inflammasome [4]): inhibition |
| O=C(Nc1c2c(cc3c1CCC3)CCC2)NS(=O)(=O)c1cnn2c1OC[C@H](O)C2 | <0.1 | No Curve | < 100 nM | < 100 nM | < 100 nM | – |
| CN(C)[C@H]1COc2c(S(=O)(=O)NC(=O)Nc3c4c(cc5c3CCC5)CCC4)cnn2C1 [drawing 541] | 0.2 | No Curve | – | – | – | IC50 [3]: < 100 nM |
| COC1COc2c(S(=O)(=O)NC(=O)Nc3c4c(cc5c3CCC5)CCC4)cnn2C1 (centres unmarked) [drawing 518] | – | No Curve | < 100 nM | < 100 nM | < 100 nM | – |
| CN[C@H]1COc2c(S(=O)(=O)NC(=O)Nc3c4c(cc5c3CCC5)CCC4)cnn2C1 [drawing 566] | <0.1 | No Curve | – | – | – | IC50 [3]: < 100 nM |
| Cc1c2c(c(NC(=O)NS(=O)(=O)c3cnn4c3OCCC4)c3c1CCC3)CCC2 | – | No Curve | – | 100 to 1000 nM | 100 to 1000 nM | – |
| O=C(Nc1c2c(cc3c1CCC3)CCC2)NS(=O)(=O)c1cnn2c1CCCC2 [Compound 4, N-((1,2,3,5,6,7-hexahydro-s-indacen-4-yl)carbamoyl)-4,5,6,7-tetrahydropyrazolo[1,5-a]pyridine-3-sulfonamide] | – | – | – | – | – | activation of pro-caspase-1 (p45 and p10 bands, Western Blot) (pro-caspase-1): blocked; also recorded: inhibition of activation |
| O=C(Nc1c2c(cc3c1CCC3)CCC2)NS(=O)(=O)c1cnn2c1OCCC2 | 0.3 | No Curve | – | – | – | IC50 [3]: < 100 nM |
| CO[C@H]1COc2c(S(=O)(=O)NC(=O)Nc3c4c(cc5c3CCC5)CCC4)cnn2C1 | 0.3 | No Curve | < 100 nM | < 100 nM | < 100 nM | – |
| O=C(Nc1c2c(cc3c1CCC3)CCC2)NS(=O)(=O)c1cc2n(n1)CCOC2 | – | No Curve | – | 100 to 1000 nM | 100 to 1000 nM | – |
| O=C(Nc1c2c(cc3c1CCC3)CCC2)NS(=O)(=O)c1cnn2c1OCC(O)C2 (centres unmarked) [drawing 514] | 0.1 | No Curve | < 100 nM | < 100 nM | < 100 nM | – |
| O=C(Nc1c2c(cc3c1CCC3)CCC2)NS(=O)(=O)c1cnn2c1OCC1(CC1)C2 [drawing 528] | 0.6 | – | < 100 nM | < 100 nM | < 100 nM | – |
| CC1(C)COc2c(S(=O)(=O)NC(=O)Nc3c4c(cc5c3CCC5)CCC4)cnn2C1 [drawing 513] | 0.5 | No Curve | < 100 nM | < 100 nM | < 100 nM | – |
| C[C@H]1COc2c(S(=O)(=O)NC(=O)Nc3c4c(cc5c3CCC5)CCC4)cnn2C1 | – | No Curve | < 100 nM | < 100 nM | < 100 nM | – |

From patent US11702428B2, “Chemical compounds as inhibitors of interleukin-1 activity” (Genentech, Inc., priority 2017, dated 2023)
